Results: PubChem BioAssay (NCI)
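How tested: cells in 96-well plates exposed to compound for 48 hours at five concentrations. GI50 is the concentration that inhibits growth by half. TGI denotes the concentration required for complete inhibition of growth.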

Experiments:
Assay in all cases: NCI-60 cell line screen, 48 h
ACHN renal = system: ACHN renal
MOLT-4 leukemia = system: MOLT-4 leukemia
HCT-15 colon = system: HCT-15 colon
A498 renal = system: A498 renal
IGROV1 ovarian = system: IGROV1 ovarian
SK-MEL-28 melanoma = system: SK-MEL-28 melanoma
TK-10 renal = system: TK-10 renal
LOX IMVI melanoma = system: LOX IMVI melanoma
SK-OV-3 ovarian = system: SK-OV-3 ovarian
CAKI-1 renal = system: CAKI-1 renal
OVCAR-4 ovarian = system: OVCAR-4 ovarian
SK-MEL-5 melanoma = system: SK-MEL-5 melanoma
NCI/ADR-RES ovarian = system: NCI/ADR-RES ovarian
BT-549 breast = system: BT-549 breast
PC-3 prostate = system: PC-3 prostate
COLO 205 colon = system: COLO 205 colon
SF-295 CNS = system: SF-295 CNS
SR leukemia = system: SR leukemia
CCRF-CEM leukemia = system: CCRF-CEM leukemia
MDA-MB-231 breast = system: MDA-MB-231 breast
M14 melanoma = system: M14 melanoma
K-562 leukemia = system: K-562 leukemia
T-47D breast = system: T-47D breast
SNB-75 CNS = system: SNB-75 CNS
SN12C renal = system: SN12C renal
MDA-MB-435 = system: MDA-MB-435
HOP-62 NSCLC = system: HOP-62 NSCLC
UO-31 renal = system: UO-31 renal
MCF7 breast = system: MCF7 breast
NCI-H23 lung = system: NCI-H23 lung
SW-620 colon = system: SW-620 colon
OVCAR-3 ovarian = system: OVCAR-3 ovarian
OVCAR-8 ovarian = system: OVCAR-8 ovarian
HCC-2998 colon = system: HCC-2998 colon
NCI-H522 lung = system: NCI-H522 lung
HS 578T breast = system: HS 578T breast
RXF 393 renal = system: RXF 393 renal
SK-MEL-2 melanoma = system: SK-MEL-2 melanoma
HOP-92 NSCLC = system: HOP-92 NSCLC
DU-145 prostate = system: DU-145 prostate
HT29 colon = system: HT29 colon
KM12 colon = system: KM12 colon
HCT-116 colon = system: HCT-116 colon
OVCAR-5 ovarian = system: OVCAR-5 ovarian
SF-539 CNS = system: SF-539 CNS
U251 CNS = system: U251 CNS
HL-60(TB) leukemia = system: HL-60(TB) leukemia
NCI-H460 lung = system: NCI-H460 lung
A549 NSCLC = system: A549 NSCLC
SF-268 CNS = system: SF-268 CNS
SNB-19 CNS = system: SNB-19 CNS
786-0 renal = system: 786-0 renal
MALME-3M melanoma = system: MALME-3M melanoma
NCI-H226 lung = system: NCI-H226 lung
UACC-62 melanoma = system: UACC-62 melanoma
RPMI-8226 leukemia = system: RPMI-8226 leukemia

CC1=CC(=NC(=O)CBr)C=C/C1=N\S(=O)(=O)c1ccccc1 was tested. Which GI50 (ACHN renal) did it give?
The GI50 was 2.77 µM.

What about the TGI (ACHN renal) of the same molecule?
The TGI was 8.98 µM.

And the GI50 (MOLT-4 leukemia)?
Its GI50 is 2.75 µM.

What about the TGI (MOLT-4 leukemia) of the same molecule?
The TGI was 9.65 µM.

What about the GI50 (HCT-15 colon) of the same molecule?
The GI50 was 1.99 µM.

And the TGI (HCT-15 colon)?
The TGI was 4.67 µM.

What about the GI50 (A498 renal) of the same molecule?
The GI50 was 14.3 µM.

What about the TGI (A498 renal) of the same molecule?
The TGI was 28.2 µM.

What about the GI50 (IGROV1 ovarian) of the same molecule?
The GI50 was 3.1 µM.

And the TGI (IGROV1 ovarian)?
The TGI was 12.1 µM.

And the GI50 (SK-MEL-28 melanoma)?
The GI50 was 6.25 µM.

What about the TGI (SK-MEL-28 melanoma) of the same molecule?
Its TGI is 19.4 µM.

And the GI50 (TK-10 renal)?
Its GI50 is 2.85 µM.

What about the TGI (TK-10 renal) of the same molecule?
Its TGI is 7.04 µM.

And the GI50 (LOX IMVI melanoma)?
Its GI50 is 1.68 µM.

What about the TGI (LOX IMVI melanoma) of the same molecule?
Its TGI is 3.24 µM.

And the GI50 (SK-OV-3 ovarian)?
The GI50 was 14.2 µM.

And the TGI (SK-OV-3 ovarian)?
Its TGI is 27.7 µM.

What about the GI50 (CAKI-1 renal) of the same molecule?
The GI50 was 3.11 µM.

What about the TGI (CAKI-1 renal) of the same molecule?
The TGI was 11.4 µM.

And the GI50 (OVCAR-4 ovarian)?
Its GI50 is 2.61 µM.

What about the TGI (OVCAR-4 ovarian) of the same molecule?
The TGI was 13.2 µM.

And the GI50 (SK-MEL-5 melanoma)?
Its GI50 is 1.79 µM.

And the TGI (SK-MEL-5 melanoma)?
The TGI was 3.98 µM.

And the GI50 (NCI/ADR-RES ovarian)?
The GI50 was 3.38 µM.

And the TGI (NCI/ADR-RES ovarian)?
Its TGI is 14 µM.

What about the GI50 (BT-549 breast) of the same molecule?
Its GI50 is 3.15 µM.

And the TGI (BT-549 breast)?
The TGI was 10.6 µM.

And the GI50 (PC-3 prostate)?
Its GI50 is 3.17 µM.

What about the TGI (PC-3 prostate) of the same molecule?
Its TGI is 13.2 µM.

What about the GI50 (COLO 205 colon) of the same molecule?
Its GI50 is 5.96 µM.

What about the TGI (COLO 205 colon) of the same molecule?
The TGI was 21.2 µM.

And the GI50 (SF-295 CNS)?
The GI50 was 15.8 µM.

What about the TGI (SF-295 CNS) of the same molecule?
Its TGI is 33.1 µM.

And the GI50 (SR leukemia)?
Its GI50 is 3.41 µM.

And the TGI (SR leukemia)?
Its TGI is 18.6 µM.

And the GI50 (CCRF-CEM leukemia)?
The GI50 was 2.45 µM.

And the TGI (CCRF-CEM leukemia)?
The TGI was 8.16 µM.

And the GI50 (MDA-MB-231 breast)?
The GI50 was 2.48 µM.

What about the TGI (MDA-MB-231 breast) of the same molecule?
The TGI was 6.42 µM.

And the GI50 (M14 melanoma)?
The GI50 was 3.26 µM.

What about the TGI (M14 melanoma) of the same molecule?
The TGI was 13.9 µM.

What about the GI50 (K-562 leukemia) of the same molecule?
Its GI50 is 2.54 µM.

And the TGI (K-562 leukemia)?
Its TGI is 6.44 µM.

What about the GI50 (T-47D breast) of the same molecule?
Its GI50 is 2.1 µM.

And the TGI (T-47D breast)?
Its TGI is 5.04 µM.

What about the GI50 (SNB-75 CNS) of the same molecule?
Its GI50 is 13.5 µM.

What about the TGI (SNB-75 CNS) of the same molecule?
The TGI was 30.4 µM.

What about the GI50 (SN12C renal) of the same molecule?
Its GI50 is 1.83 µM.

And the TGI (SN12C renal)?
The TGI was 3.59 µM.

And the GI50 (MDA-MB-435)?
The GI50 was 3.4 µM.

What about the TGI (MDA-MB-435) of the same molecule?
The TGI was 13.7 µM.

And the GI50 (HOP-62 NSCLC)?
Its GI50 is 11.9 µM.

What about the TGI (HOP-62 NSCLC) of the same molecule?
Its TGI is 25.1 µM.

And the GI50 (UO-31 renal)?
The GI50 was 2.77 µM.

What about the TGI (UO-31 renal) of the same molecule?
Its TGI is 12.6 µM.

And the GI50 (MCF7 breast)?
Its GI50 is 1.8 µM.

What about the TGI (MCF7 breast) of the same molecule?
Its TGI is 4.37 µM.

What about the GI50 (NCI-H23 lung) of the same molecule?
The GI50 was 2.36 µM.

And the TGI (NCI-H23 lung)?
Its TGI is 5.99 µM.

What about the GI50 (SW-620 colon) of the same molecule?
Its GI50 is 3.03 µM.

What about the TGI (SW-620 colon) of the same molecule?
The TGI was 10.1 µM.

And the GI50 (OVCAR-3 ovarian)?
The GI50 was 2.04 µM.

What about the TGI (OVCAR-3 ovarian) of the same molecule?
The TGI was 4.47 µM.

What about the GI50 (OVCAR-8 ovarian) of the same molecule?
Its GI50 is 3.29 µM.

And the TGI (OVCAR-8 ovarian)?
Its TGI is 11.1 µM.

What about the GI50 (HCC-2998 colon) of the same molecule?
The GI50 was 16.5 µM.

And the TGI (HCC-2998 colon)?
Its TGI is 31.3 µM.

And the GI50 (NCI-H522 lung)?
The GI50 was 1.61 µM.

And the TGI (NCI-H522 lung)?
Its TGI is 3.72 µM.

And the GI50 (HS 578T breast)?
The GI50 was 5.03 µM.

What about the TGI (HS 578T breast) of the same molecule?
Its TGI is 35.2 µM.

What about the GI50 (RXF 393 renal) of the same molecule?
Its GI50 is 1.77 µM.

And the TGI (RXF 393 renal)?
Its TGI is 3.89 µM.

What about the GI50 (SK-MEL-2 melanoma) of the same molecule?
The GI50 was 4.04 µM.

What about the TGI (SK-MEL-2 melanoma) of the same molecule?
The TGI was 16 µM.

And the GI50 (HOP-92 NSCLC)?
Its GI50 is 1.8 µM.

What about the TGI (HOP-92 NSCLC) of the same molecule?
Its TGI is 6.77 µM.

And the GI50 (DU-145 prostate)?
Its GI50 is 3.63 µM.

What about the TGI (DU-145 prostate) of the same molecule?
Its TGI is 12.2 µM.

And the GI50 (HT29 colon)?
Its GI50 is 2.58 µM.

What about the TGI (HT29 colon) of the same molecule?
Its TGI is 6.7 µM.

And the GI50 (KM12 colon)?
The GI50 was 16.8 µM.

What about the TGI (KM12 colon) of the same molecule?
Its TGI is 31.2 µM.

And the GI50 (HCT-116 colon)?
The GI50 was 2.05 µM.

And the TGI (HCT-116 colon)?
The TGI was 4.97 µM.

What about the GI50 (OVCAR-5 ovarian) of the same molecule?
Its GI50 is 2.65 µM.

And the TGI (OVCAR-5 ovarian)?
Its TGI is 6.86 µM.

And the GI50 (SF-539 CNS)?
The GI50 was 3.49 µM.

And the TGI (SF-539 CNS)?
The TGI was 12 µM.

And the GI50 (U251 CNS)?
Its GI50 is 3.37 µM.

What about the TGI (U251 CNS) of the same molecule?
The TGI was 12.2 µM.

What about the GI50 (HL-60(TB) leukemia) of the same molecule?
The GI50 was 2.78 µM.

What about the TGI (HL-60(TB) leukemia) of the same molecule?
The TGI was 7.94 µM.

And the GI50 (NCI-H460 lung)?
Its GI50 is 15.1 µM.

And the TGI (NCI-H460 lung)?
Its TGI is 34 µM.

And the GI50 (A549 NSCLC)?
The GI50 was 13.9 µM.

And the TGI (A549 NSCLC)?
The TGI was 34.8 µM.

And the GI50 (SF-268 CNS)?
Its GI50 is 3.69 µM.

What about the TGI (SF-268 CNS) of the same molecule?
Its TGI is 13.7 µM.

What about the GI50 (SNB-19 CNS) of the same molecule?
The GI50 was 13.6 µM.

What about the TGI (SNB-19 CNS) of the same molecule?
The TGI was 26.9 µM.

And the GI50 (786-0 renal)?
Its GI50 is 3.37 µM.

What about the TGI (786-0 renal) of the same molecule?
Its TGI is 10.8 µM.

What about the GI50 (MALME-3M melanoma) of the same molecule?
Its GI50 is 2.06 µM.

What about the TGI (MALME-3M melanoma) of the same molecule?
The TGI was 5.89 µM.

And the GI50 (NCI-H226 lung)?
The GI50 was 15.1 µM.

What about the TGI (NCI-H226 lung) of the same molecule?
The TGI was 40.2 µM.

What about the GI50 (UACC-62 melanoma) of the same molecule?
The GI50 was 2.58 µM.

What about the TGI (UACC-62 melanoma) of the same molecule?
The TGI was 10.7 µM.

And the GI50 (RPMI-8226 leukemia)?
The GI50 was 2.9 µM.

What about the TGI (RPMI-8226 leukemia) of the same molecule?
Its TGI is 9.35 µM.
